Data set [1] concerns HepG2 cells. Put plainly: Colorimetric (ONPG) β-galactosidase assay of cell extracts. It counts as cell-based, human. As to the method:
Adherent cell lines were seeded one day prior to infection. Cells were exposed to virus in 2 ml of medium for 90 minutes, and then the virus-containing medium was removed and replaced with fresh medium. Mock-infected cells were treated with 2 ml medium lacking the viral inoculum.
To measure expression of the reporter gene in the infected cells, colorimetric assays of β-galactosidase enzymatic activity were performed with standard methods (Norton et al., 1985, Molecular & Cellular Biology 5:281-290). Other conventional methods for measuring β-galactosidase activity could be used in lieu of the methods employed in this example. Cell extracts were prepared at one day post-infection. Cell monolayers were rinsed three times with PBS, scraped from the dish, and collected by low-speed centrifugation. The cell pellets were resuspended in 25 mM Tris pH 7.4/0.1 mM EDTA and then subjected to three cycles of freezing in liquid nitrogen and thawing in a 37° C. water bath. The extracts were then clarified by centrifugation at 14,000×g for 5 minutes. Standard conditions for assaying β-galactosidase activity utilized 0.1 ml of cell extract, 0.8 ml of PM-2 buffer, and 0.2 ml of […] (4 mg/ml) in PM-2 buffer for 10 minutes at 37° C. (Norton et al., 1985, Mol. & Cell. Biol. 5:281-290). The reaction was stopped by the addition of 0.5 ml of 1 M sodium carbonate. The amount of substrate hydrolyzed was detected spectrophotometrically at 420 nm, and β-galactosidase enzymatic activity was calculated with conventional methods (Norton et al., 1985, Mol. & Cell. Biol. 5:281-290). The assay was verified to be linear with respect to extract concentration and time. Extract protein concentrations were determined using the Coomassie Plus protein assay (Pierce) with bovine serum albumin as a standard, and the level of β-galactosidase activity was expressed as units of β-galactosidase activity per mg of protein. Other standard protein assays can be used, if desired.
Baculovirus-mediated Gene Transfer is Inhibited by Lysomotropic Agents: To gain insight into the mechanism by which baculoviruses express an exogenous gene in a mammalian cell, the susceptibility of gene expression to a lysomotropic agent was examined. Like other enveloped viruses, the budded form of AcMNPV normally enters cells via endocytosis, followed by low pH-triggered fusion of the viral envelope with the endosomal membrane, thus allowing escape into the cytoplasm (Blissard et al., 1993, J. Virol. 66:6829-6835; Blissard et al., 1990, Ann. Rev. of Entomol. 35:127-155). To determine whether endosome acidification was necessary for baculovirus-mediated gene transfer into mammalian cells, HepG2 cells were infected with RSV-lacZ AcMNPV in the presence of chloroquine, a lysomotropic agent. HepG2 cells were exposed to AcMNPV virus in media containing or lacking inhibitor for 90 minutes, then the virus-containing media were removed and replaced with fresh media containing or lacking inhibitors as listed.
At one day post-infection, the cells were harvested and extracts were assayed for β-galactosidase activity and protein content. Each value in the table represents the average of three independent assays, with the amount of β-galactosidase produced by the RSV-lacZ AcMNPV virus in the absence of inhibitors assigned a value of 100%. β-galactosidase activity was normalized for protein content of each extract. […]

The test system of data set [2] is VGZ3-treated mammalian cells. Put plainly: Inhibition of β-galactosidase expression in VGZ3-treated cells. The format is cell-based. The note with it: data not shown.
Data set [3] relates to HepG2 cells. The format is cell-based, human. The note with it: moi 100.
In the next data set the test system is Rat Hepatocytes. Put plainly: Colorimetric (ONPG) β-galactosidase assay of cell extracts. To be noted: background subtracted.

Consider three compounds from patent US6338953B1, “Expression of an exogenous gene in a mammalian cell by use of a non-mammalian DNA virus having an altered coat protein” (The General Hospital Corporation, priority 1996, dated 2002).

With `CCN(CC)CCCC(C)Nc1ccnc2cc(Cl)ccc12` (stereo not drawn) [chloroquine], the “effect on de novo expression of β-galactosidase” value in the data set on HepG2 cells [1] (25 μM continuously present during and after exposure to virus) was “completely prevented”. The “effect on β-galactosidase expression” value with HepG2 cells [1] (added 90 minutes after exposure to the virus) is given as “only partial inhibition”. Also, the “effect on β-galactosidase expression in VGZ3-treated mammalian cells” value in data set [2] was “inhibited β-galactosidase expression”.
With `C[C@@H]1C[C@@H]([C@H](O)CC2CC(=O)NC(=O)C2)C(=O)[C@@H](C)C1` [cycloheximide], the “inhibition of accumulation of β-galactosidase enzyme activity” value in the data set on HepG2 cells [1] (HepG2 infected with RSV-lacZ virus, drug after infection) was “more than 90%”. Moreover, the “effect on β-galactosidase expression in VGZ3-treated mammalian cells” value in data set [2] is on record as “inhibited β-galactosidase expression”.
Regarding Albumin, in the data set with HepG2 cells [1] (moi 100, 24 hours, mock background subtracted), the “Promoter strength, Hep G2 −butyrate” value worked out at 0.0 ± 0.0 Units/mg. Besides, the “Promoter strength, Hep G2 +butyrate” value in the data set with HepG2 cells [1] (moi 100, sodium butyrate added 2 hours after infection, 24 hours, background subtracted) is given as 0.08 ± 0.04 Units/mg. The “X-gal staining of cells not treated with butyrate” value in the data set on HepG2 cells [3] is “positively stained cells were detected”. The “Promoter strength, Rat Hepatocytes −butyrate” value in the data set on Rat Hepatocytes came out at 0.15 ± 0.08 Units/mg.
